Source: ChEMBL document CHEMBL1201862, “PubChem BioAssay data set” (2004)
Values joined by “and” are separate entries in the source; they are usually repeats but may differ in a detail not shown here. Identical values can stand only once.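 Five compound concentrations were applied to cells in 96-well plates for 48 hours; endpoints were derived by simple linear interpolation of the resulting dose-response curve. GI50 = concentration required for 50% inhibition of growth.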 Active and inactive are the calls of the source. Rule as the data show it: active = GI50 up to about 1.1 µM and inactive = higher.

Tests used:
Assay in all cases: NCI anticancer screen, dose series, 48 h
UACC-257 = system: UACC-257
HCC 2998 = system: HCC 2998
HT-29 = system: HT-29
ACHN = system: ACHN
MDA-MB-231 = system: MDA-MB-231
SF-295 = system: SF-295
HOP-92 = system: HOP-92
MDA-N = system: MDA-N
HOP-62 = system: HOP-62
K562 = system: K562
NCI-H23 = system: NCI-H23
786-0 = system: 786-0
COLO 205 = system: COLO 205
UACC-62 = system: UACC-62
SR = system: SR
RPMI-8226 = system: RPMI-8226
OVCAR-3 = system: OVCAR-3
SK-MEL-28 = system: SK-MEL-28
SF-268 = system: SF-268
SK-OV-3 = system: SK-OV-3

Measured: GI50

Cc1cn(C2CC(N(O)Cc3ccccc3)C(CO[Si](C)(C)C(C)(C)C)O2)c(=O)[nH]c1=O (stereo not drawn)
inactive: UACC-257 16.4 µM and 26.4 µM | HCC 2998 19.8 µM and 16.7 µM | HT-29 17.3 µM and 22.9 µM | ACHN 26.7 µM and 17.6 µM | MDA-MB-231 16.8 µM and 16.5 µM | SF-295 17.2 µM and 18.8 µM | HOP-92 16 µM and 18.7 µM | MDA-N 18.9 µM and 17.4 µM | HOP-62 19.5 µM and 16.3 µM | K562 24.4 µM and 27 µM | NCI-H23 26.6 µM and 16.7 µM | 786-0 17.4 µM and 15.6 µM | COLO 205 18.5 µM and 20.9 µM | UACC-62 12.2 µM and 16.4 µM | SR 31.6 µM | RPMI-8226 30.6 µM | OVCAR-3 17.7 µM

Cc1cc(NS(=O)(=O)c2ccc(NO)cc2)no1
inactive: UACC-257 > 100 µM | HCC 2998 > 100 µM | HT-29 41.3 µM | SK-MEL-28 > 100 µM | ACHN > 100 µM | MDA-MB-231 34.7 µM | SF-295 > 10 µM | HOP-92 > 100 µM | MDA-N 20.7 µM | SF-268 > 100 µM | SK-OV-3 > 100 µM | HOP-62 > 100 µM | K562 14.7 µM | 786-0 33 µM | COLO 205 > 100 µM | UACC-62 56.6 µM | SR 23.4 µM | OVCAR-3 > 100 µM

Cc1c(-c2nc3ccccc3[nH]2)c(=O)n(-c2ccccc2)n1C
inactive: UACC-257 > 100 µM | HCC 2998 > 100 µM | HT-29 > 100 µM | SK-MEL-28 > 100 µM | ACHN > 100 µM | MDA-MB-231 > 100 µM | SF-295 > 100 µM | HOP-92 > 100 µM | MDA-N > 100 µM | SF-268 > 100 µM | SK-OV-3 > 100 µM | HOP-62 > 100 µM | K562 > 100 µM | NCI-H23 > 100 µM | 786-0 > 100 µM | COLO 205 > 100 µM | UACC-62 > 100 µM | RPMI-8226 > 100 µM | OVCAR-3 > 100 µM

Cc1cn(CCC(N)C(=O)O)c(=O)[nH]c1=O (stereo not drawn)
inactive: UACC-257 > 100 µM | HT-29 > 100 µM | SK-MEL-28 > 100 µM | ACHN > 100 µM | MDA-MB-231 > 100 µM | SF-295 > 100 µM | HOP-92 > 100 µM | MDA-N > 100 µM | SF-268 > 100 µM | SK-OV-3 > 100 µM | HOP-62 > 100 µM | K562 > 100 µM | NCI-H23 > 100 µM | 786-0 > 100 µM | COLO 205 > 100 µM | UACC-62 > 100 µM | SR > 100 µM | RPMI-8226 > 100 µM | OVCAR-3 > 100 µM

C=CCOCn1ccc(NC(=O)c2ccccc2)nc1=O
inactive: UACC-257 > 100 µM | HCC 2998 > 100 µM | HT-29 > 100 µM | SK-MEL-28 > 100 µM | ACHN > 100 µM | MDA-MB-231 > 100 µM | SF-295 > 100 µM | MDA-N > 100 µM | SF-268 > 100 µM | SK-OV-3 > 100 µM | HOP-62 > 100 µM | K562 > 100 µM | NCI-H23 > 100 µM | 786-0 > 100 µM | COLO 205 > 100 µM | UACC-62 > 100 µM | SR > 100 µM | RPMI-8226 > 100 µM

NNC1=Nc2ccc(Cl)cc2C(=S)N2CSCC12 (stereo not drawn)
inactive: UACC-257 > 100 µM | HCC 2998 > 100 µM | HT-29 > 100 µM | SK-MEL-28 > 100 µM | ACHN > 100 µM | MDA-MB-231 > 100 µM | SF-295 > 100 µM | MDA-N > 100 µM | SF-268 > 100 µM | SK-OV-3 > 100 µM | HOP-62 > 100 µM | K562 > 100 µM | 786-0 > 100 µM | COLO 205 > 100 µM | UACC-62 > 100 µM | SR > 100 µM | RPMI-8226 > 100 µM | OVCAR-3 > 100 µM

CN(C)Cc1cc(/N=N/c2ccccc2)ccc1O
inactive: UACC-257 25.6 µM | HCC 2998 34.1 µM | HT-29 32.4 µM | SK-MEL-28 51.4 µM | ACHN 29 µM | MDA-MB-231 32.9 µM | SF-295 > 100 µM | HOP-92 23.2 µM | MDA-N 44 µM | SF-268 38.8 µM | HOP-62 39.7 µM | K562 24.2 µM | NCI-H23 98.9 µM | 786-0 65.5 µM | COLO 205 53 µM | UACC-62 24.5 µM | SR 59.2 µM | RPMI-8226 56 µM | OVCAR-3 68.2 µM
